Measurements: PubChem BioAssay (NCI)
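Method: 48-hour compound exposure of cells in 96-well plates, five concentrations, linear interpolation of endpoints. TGI: total growth inhibition.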

How the values were obtained:
Experiment in all cases: NCI-60 cell line screen, 48 h
[1] = tested on: 786-0 renal
[2] = tested on: A549 NSCLC
[3] = tested on: ACHN renal
[4] = tested on: BT-549 breast
[5] = tested on: CAKI-1 renal
[6] = tested on: CCRF-CEM leukemia
[7] = tested on: COLO 205 colon
[8] = tested on: DU-145 prostate
[9] = tested on: EKVX NSCLC
[10] = tested on: HCC-2998 colon
[11] = tested on: HCT-116 colon
[12] = tested on: HCT-15 colon
[13] = tested on: HL-60(TB) leukemia
[14] = tested on: HOP-62 NSCLC
[15] = tested on: HOP-92 NSCLC
[16] = tested on: HT29 colon
[17] = tested on: IGROV1 ovarian
[18] = tested on: K-562 leukemia
[19] = tested on: KM12 colon
[20] = tested on: LOX IMVI melanoma
[21] = tested on: M14 melanoma
[22] = tested on: MALME-3M melanoma
[23] = tested on: MCF7 breast
[24] = tested on: MDA-MB-231 breast
[25] = tested on: MDA-MB-435
[26] = tested on: MDA-N
[27] = tested on: MOLT-4 leukemia
[28] = tested on: NCI-H226 lung
[29] = tested on: NCI-H23 lung
[30] = tested on: NCI-H460 lung
[31] = tested on: NCI-H522 lung
[32] = tested on: NCI/ADR-RES ovarian
[33] = tested on: OVCAR-3 ovarian
[34] = tested on: OVCAR-4 ovarian
[35] = tested on: OVCAR-5 ovarian
[36] = tested on: OVCAR-8 ovarian
[37] = tested on: PC-3 prostate
[38] = tested on: RPMI-8226 leukemia
[39] = tested on: SF-295 CNS
[40] = tested on: SF-539 CNS
[41] = tested on: SK-MEL-2 melanoma
[42] = tested on: SK-MEL-28 melanoma
[43] = tested on: SK-OV-3 ovarian
[44] = tested on: SN12C renal
[45] = tested on: SNB-19 CNS
[46] = tested on: SNB-75 CNS
[47] = tested on: SR leukemia
[48] = tested on: SW-620 colon
[49] = tested on: TK-10 renal
[50] = tested on: U251 CNS
[51] = tested on: UACC-257 melanoma
[52] = tested on: UACC-62 melanoma
[53] = tested on: UO-31 renal
[54] = tested on: A498 renal
[55] = tested on: HS 578T breast
[56] = tested on: RXF 393 renal
[57] = tested on: SF-268 CNS
[58] = tested on: SK-MEL-5 melanoma

SMILES: O=C1c2ccccc2-c2nc(-c3ccncc3)cc3c2c1nc1ccccc13
- TGI [1]: > 100 µM
- TGI [2]: 40.2 µM
- TGI [3]: > 100 µM
- TGI [4]: > 100 µM
- TGI [5]: > 100 µM
- TGI [6]: > 100 µM
- TGI [7]: 62.3 µM
- TGI [8]: 32.3 µM
- TGI [9]: > 100 µM
- TGI [10]: 42.9 µM
- TGI [11]: > 100 µM
- TGI [12]: > 100 µM
- TGI [13]: 34.5 µM
- TGI [14]: 25.3 µM
- TGI [15]: > 100 µM
- TGI [16]: > 100 µM
- TGI [17]: 52.8 µM
- TGI [18]: > 100 µM
- TGI [19]: 47.7 µM
- TGI [20]: > 100 µM
- TGI [21]: 17 µM
- TGI [22]: 22.4 µM
- TGI [23]: > 100 µM
- TGI [24]: > 100 µM
- TGI [25]: 29.5 µM
- TGI [26]: 41.9 µM
- TGI [27]: 44.4 µM
- TGI [28]: > 100 µM
- TGI [29]: 41.3 µM
- TGI [30]: 90.9 µM
- TGI [31]: 30.7 µM
- TGI [32]: > 100 µM
- TGI [33]: 12.8 µM
- TGI [34]: > 100 µM
- TGI [35]: > 100 µM
- TGI [36]: > 100 µM
- TGI [37]: > 100 µM
- TGI [38]: > 100 µM
- TGI [39]: 29.5 µM
- TGI [40]: > 100 µM
- TGI [41]: 26.3 µM
- TGI [42]: > 100 µM
- TGI [43]: > 100 µM
- TGI [44]: > 100 µM
- TGI [45]: > 100 µM
- TGI [46]: > 100 µM
- TGI [47]: 44.8 µM
- TGI [48]: > 100 µM
- TGI [49]: > 100 µM
- TGI [50]: 33.2 µM
- TGI [51]: 47.3 µM
- TGI [52]: 26.2 µM
- TGI [53]: > 100 µM

SMILES: COc1ccc(-c2csc(-n3c(-c4ccccc4)nc4c(Br)cc(Br)cc4c3=O)n2)cc1
- TGI [1]: 54.4 µM
- TGI [54]: 65.9 µM
- TGI [2]: > 100 µM
- TGI [3]: > 100 µM
- TGI [4]: 88.8 µM
- TGI [5]: > 100 µM
- TGI [6]: 43.6 µM
- TGI [7]: > 100 µM
- TGI [8]: > 100 µM
- TGI [9]: 35.1 µM
- TGI [10]: > 100 µM
- TGI [11]: 77.1 µM
- TGI [12]: > 100 µM
- TGI [13]: 49 µM
- TGI [14]: > 100 µM
- TGI [15]: 46.7 µM
- TGI [55]: > 100 µM
- TGI [16]: > 100 µM
- TGI [17]: > 100 µM
- TGI [18]: 58.7 µM
- TGI [19]: > 100 µM
- TGI [20]: > 100 µM
- TGI [21]: 96.4 µM
- TGI [22]: 59.2 µM
- TGI [23]: > 100 µM
- TGI [24]: > 100 µM
- TGI [25]: 75.4 µM
- TGI [26]: 67.7 µM
- TGI [27]: > 100 µM
- TGI [28]: 90.7 µM
- TGI [29]: 69.4 µM
- TGI [30]: > 100 µM
- TGI [31]: > 100 µM
- TGI [32]: 85.5 µM
- TGI [33]: > 100 µM
- TGI [34]: > 100 µM
- TGI [35]: > 100 µM
- TGI [36]: > 100 µM
- TGI [37]: > 100 µM
- TGI [38]: 31 µM
- TGI [56]: 76.4 µM
- TGI [57]: 67.1 µM
- TGI [39]: > 100 µM
- TGI [41]: > 100 µM
- TGI [42]: 57.8 µM
- TGI [58]: 36.9 µM
- TGI [43]: > 100 µM
- TGI [45]: > 100 µM
- TGI [46]: > 100 µM
- TGI [48]: > 100 µM
- TGI [49]: > 100 µM
- TGI [50]: > 100 µM
- TGI [51]: > 100 µM
- TGI [52]: > 100 µM
- TGI [53]: 68.2 µM

SMILES: Cc1ccc(NC(=O)/C(CC2N=c3c(ccc4c(O)c5ccccc5c(O)c34)=NC2O)=N/NC(C)(C)C)cc1 (stereo not given)
- TGI [1]: 17.5 µM
- TGI [2]: > 100 µM
- TGI [3]: 38.6 µM
- TGI [4]: > 100 µM
- TGI [5]: 25.6 µM
- TGI [6]: 7.26 µM
- TGI [7]: > 100 µM
- TGI [8]: 39.5 µM
- TGI [9]: > 100 µM
- TGI [10]: 78.5 µM
- TGI [11]: 29.6 µM
- TGI [12]: 44.5 µM
- TGI [13]: 28.1 µM
- TGI [14]: 43.9 µM
- TGI [15]: 56.5 µM
- TGI [55]: 54.8 µM
- TGI [16]: 43 µM
- TGI [17]: 83.5 µM
- TGI [19]: > 100 µM
- TGI [20]: 25.3 µM
- TGI [21]: 73.6 µM
- TGI [23]: > 100 µM
- TGI [24]: 18.8 µM
- TGI [25]: > 100 µM
- TGI [26]: > 100 µM
- TGI [27]: 22.6 µM
- TGI [29]: 83.9 µM
- TGI [30]: 26.4 µM
- TGI [31]: 97.2 µM
- TGI [32]: 20.2 µM
- TGI [33]: 51.7 µM
- TGI [34]: 45.1 µM
- TGI [35]: > 100 µM
- TGI [36]: 21.9 µM
- TGI [37]: 78.1 µM
- TGI [56]: 44.2 µM
- TGI [57]: 59 µM
- TGI [39]: > 100 µM
- TGI [40]: 25.9 µM
- TGI [41]: 81.9 µM
- TGI [42]: 39.3 µM
- TGI [58]: 24.2 µM
- TGI [43]: 33.6 µM
- TGI [44]: 44.8 µM
- TGI [45]: > 100 µM
- TGI [46]: 91.1 µM
- TGI [48]: 70.2 µM
- TGI [49]: 39.6 µM
- TGI [50]: 63.4 µM
- TGI [51]: > 100 µM
- TGI [52]: 45.8 µM
- TGI [53]: 17.5 µM
